Reference: PubChem BioAssay AID1963840 (Molecular Pharmacology Branch, DTP, NCI, 2024)

Tested on: 695427-040-R-J1-PDC complex spheroid viability
Assay: Anticancer human tumor 695427-040-R-J1-PDC patient-derived colon adenocarcinoma cell line growth inhibition [POLQ]
Settings: for IC50: curve of first compound; for viability, T/C: stronger effect = lower value
Method: Multicellular complex tumor spheroid response to Polymerase (POL) inhibitors (novobiocin, ART-558, RP6685) in combination with a variety of drugs and investigational agents in selected tumor cell lines
The POL inhibitors (novobiocin, ART-558, and RP6685) were evaluated both individually and in combination with standard of care and investigational anticancer small molecules within a complex spheroid model of solid tumors. . Complex spheroids include a stromal component modeled by human endothelial cells (HUVEC) and fibroblasts modeled by human mesenchymal stem cells (MSCs). The concentration ranges selected for each drug and investigational agent were based upon clinically achievable concentrations if the clinical Cmax of the agent was known.
Compounds. The drugs and investigational agents: novobiocin (NSC847541), ART-558 (NSC835418), RP-6685 (NSC848927), peposertib (NSC802822), ceralasertib (NSC780249), elimusertib (NSC800525), camonsertib (NSC841442), AZD-1390 (NSC803789), olaparib (NSC753686), talazoparib (NSC767125), rucaparib (NSC756644), sotorasib (NSC818433), MRTX-1133 (NSC836407), SN-38 (NSC673596), topotecan (NSC609699), epotoside (NSC141540), doxorubicin (NSC123127), gemcitabine (NSC613327), 5-fluorouracil (NSC19893), paclitaxel (NSC125973), vemurafenib (NSC761431), MSA-2 (NSC828583), SN-011 (NSC837082), adavosertib (NSC754352), prexasertib (NSC758257), carboplatin (NSC241240) and oxaliplatin (NSC266046), were obtained from the National Cancer Institute (NCI) Developmental Therapeutics Program Chemical Repository (21). The FDA-approved anticancer drug set is available from the Developmental Therapeutics Program at https://dtp.cancer.gov/organization/dscb/obtaining/. […] The stock solutions were prepared in dimethyl sulfoxide (DMSO, Sigma-Aldrich, St. Louis, MO, cat. D2650), except for the platinum compounds which were prepared in saline (Quality Biological, Gaithersburg, MD, cat. 114-055-101), at 800-fold the tested concentration and stored at -70 degrees C prior to their use. All drugs and investigational agents were tested over a range starting from a high concentration at or near the clinical Cmax and decreasing in half-log increments. If the clinical Cmax for an agent had not been determined, the highest concentration tested was 10 microM, except for SN-38, which was tested at a high concentration of 1 microM.
Cell Culture. All cells were maintained in an incubator at 37 degrees C and 5% CO2 with 95% humidity. The PDC lines were cultured according to standard operating procedures established by the NCI PDMR (https://pdmr.cancer.gov). Table 3 of the manuscript, lists the cell lines along with the number of the three cell types plated to form the mct-spheroids and media for tumor cell growth. After thawing, all PDC lines, except 997537-175-T-J1-PDC and 415267-285-R-J2-PDC, were cultured in Matrigel-coated flasks prepared with a working solution of 1X Ham's F-12 nutrient mix, without supplementation (Thermo Fisher Scientific, cat. 11765054), 100 U/mL penicillin-streptomycin (Thermo Fisher Scientific, cat. 15140122), and 2.5% Matrigel (Corning Inc., Corning, NY, cat. 354248) for the first three passages. The two PDC lines 997537-175-T-J1-PDC and 415267-285-R-J2-PDC were cultured on uncoated flasks. The 857933-349-R-J2-PDC line was cultured in 6C/Colon 1B media containing advanced DMEM/F-12 (Thermo Fisher Scientific, cat. 12634028), 10 mM HEPES (Thermo Fisher Scientific, cat. 15630080), 1X GlutaMAX supplement (Thermo Fisher Scientific, cat. 35050061), 0.1 mg/mL primocin (InvivoGen, San Diego, CA, cat. ant-pm-2), 10% defined fetal bovine serum, heat inactivated (HyClone Laboratories Inc., Logan, UT, cat. SH30070.03HI), 50% L-WRN conditioned media (ATCC, cat. CRL-3276), 1.25 mM N-Acetyl-L-cysteine (Sigma-Aldrich, cat. A9165), 10 mM nicotinamide (Sigma-Aldrich, cat. N0636), 1X B-27 supplement (Thermo Fisher Scientific, cat. 17504044), 1X N-2 supplement (Thermo Fisher Scientific, cat. […]
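Further: spheroids exposed to compounds for seven days.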
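Wherever viability, T/C is given: 100% = DMSO vehicle control viability.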

## CCc1cc2c(N3CCc4c(cc(Cn5ccnc5)cc4-c4cn(C)nc4C(F)(F)F)C3=O)ccnc2c(OC)n1 + Cc1cccc(N(C)C(=O)C2C(O)CCN2c2nc(C)cc(C(F)(F)F)c2C#N)c1
Second compound 0.0316 µM
  IC50: > 10 µM
Second compound 0.1 µM
  IC50: > 10 µM
Second compound 0.316 µM
  IC50: > 10 µM
Second compound 1 µM
  IC50: > 10 µM
Second compound 3.16 µM
  IC50: > 10 µM
Second compound 10 µM
  IC50: > 10 µM
Second compound 0.0316 µM, first compound 0.0316 µM
  viability, T/C: 97%
Second compound 0.0316 µM, first compound 0.1 µM
  viability, T/C: 99.7%
Second compound 0.0316 µM, first compound 0.316 µM
  viability, T/C: 98.2%
Second compound 0.0316 µM, first compound 1 µM
  viability, T/C: 104%
Second compound 0.0316 µM, first compound 3.16 µM
  viability, T/C: 105%
Second compound 0.0316 µM, first compound 10 µM
  viability, T/C: 92.4%
Second compound 0.1 µM, first compound 0.0316 µM
  viability, T/C: 110%
Second compound 0.1 µM, first compound 0.1 µM
  viability, T/C: 107%
Second compound 0.1 µM, first compound 0.316 µM
  viability, T/C: 109%
Second compound 0.1 µM, first compound 1 µM
  viability, T/C: 103%
Second compound 0.1 µM, first compound 3.16 µM
  viability, T/C: 114%
Second compound 0.1 µM, first compound 10 µM
  viability, T/C: 89.3%
Second compound 0.316 µM, first compound 0.0316 µM
  viability, T/C: 105%
Second compound 0.316 µM, first compound 0.1 µM
  viability, T/C: 109%
Second compound 0.316 µM, first compound 0.316 µM
  viability, T/C: 92.8%
Second compound 0.316 µM, first compound 1 µM
  viability, T/C: 113%
Second compound 0.316 µM, first compound 3.16 µM
  viability, T/C: 109%
Second compound 0.316 µM, first compound 10 µM
  viability, T/C: 81.3%
Second compound 1 µM, first compound 0.0316 µM
  viability, T/C: 103%
Second compound 1 µM, first compound 0.1 µM
  viability, T/C: 108%
Second compound 1 µM, first compound 0.316 µM
  viability, T/C: 105%
Second compound 1 µM, first compound 1 µM
  viability, T/C: 103%
Second compound 1 µM, first compound 3.16 µM
  viability, T/C: 102%
Second compound 1 µM, first compound 10 µM
  viability, T/C: 82.7%
Second compound 3.16 µM, first compound 0.0316 µM
  viability, T/C: 101%
Second compound 3.16 µM, first compound 0.1 µM
  viability, T/C: 94.9%
Second compound 3.16 µM, first compound 0.316 µM
  viability, T/C: 95.2%
Second compound 3.16 µM, first compound 1 µM
  viability, T/C: 103%
Second compound 3.16 µM, first compound 3.16 µM
  viability, T/C: 99.8%
Second compound 3.16 µM, first compound 10 µM
  viability, T/C: 85.5%
Second compound 10 µM, first compound 0.0316 µM
  viability, T/C: 98%
Second compound 10 µM, first compound 0.1 µM
  viability, T/C: 86.4%
Second compound 10 µM, first compound 0.316 µM
  viability, T/C: 93.6%
Second compound 10 µM, first compound 1 µM
  viability, T/C: 97.8%
Second compound 10 µM, first compound 3.16 µM
  viability, T/C: 103%
Second compound 10 µM, first compound 10 µM
  viability, T/C: 83.6%
